Source: ChEMBL document CHEMBL1177855, “Synthesis of some N-alkyl substituted urea derivatives as antibacterial and antifungal agents” (2010)
In brackets after ≈: the same amount, converted by molar mass.

Experiments:
Type in all cases: functional
Escherichia coli = experiment: Antibacterial activity against Escherichia coli ATCC 35218 after 24 hrs by MTT assay; conditions: ATCC 35218, 24 h
Pseudomonas aeruginosa = experiment: Antibacterial activity against Pseudomonas aeruginosa ATCC 13525 after 24 hrs by MTT assay; conditions: ATCC 13525, 24 h
Bacillus subtilis = experiment: Antibacterial activity against Bacillus subtilis ATCC 6633 after 24 hrs by MTT assay; conditions: ATCC 6633, 24 h
Staphylococcus aureus = experiment: Antibacterial activity against Staphylococcus aureus ATCC 6538 after 24 hrs by MTT assay; conditions: ATCC 6538, 24 h
Aspergillus niger = experiment: Antifungal activity against Aspergillus niger ATCC 16404 after 24 hrs by MTT assay; conditions: ATCC 16404, 24 h
Trichophyton rubrum = experiment: Antifungal activity against Trichophyton rubrum ATCC 10218 after 24 hrs by MTT assay; conditions: ATCC 10218, 24 h

| MIC (Escherichia coli) [µg/mL] | MIC (Pseudomonas aeruginosa) [µg/mL] | MIC (Bacillus subtilis) [µg/mL] | MIC (Staphylococcus aureus) [µg/mL] | MIC (Aspergillus niger) [µg/mL] | MIC (Trichophyton rubrum) [µg/mL] | Compound |
| --- | --- | --- | --- | --- | --- | --- |
| > 50 | > 50 | > 50 | > 50 | 45.2 (≈ 173 µM) | > 50 | CCN(CC)C(=O)Nc1ccc(Cl)cc1Cl |
| 7.2 (≈ 29 µM) | 8 (≈ 32.2 µM) | > 50 | > 50 | > 50 | 20.7 (≈ 83.4 µM) | CC(C)c1ccc(NC(=O)N2CCOCC2)cc1 |
| 1.6 (≈ 7.14 µM) | 6.2 (≈ 27.6 µM) | > 50 | > 50 | > 50 | 3.5 (≈ 15.6 µM) | O=C(Nc1ccc(F)cc1)N1CCOCC1 |
| 2.1 (≈ 9.37 µM) | 12.5 (≈ 55.7 µM) | 1.6 (≈ 7.14 µM) | > 50 | > 50 | 3.1 (≈ 13.8 µM) | O=C(Nc1ccccc1F)N1CCOCC1 |
| 4.2 (≈ 17.3 µM) | > 50 | > 50 | > 50 | > 50 | 18.2 (≈ 75.1 µM) | O=C(Nc1ccc(F)cc1F)N1CCOCC1 |
| 12.5 (≈ 45.4 µM) | 50 (≈ 182 µM) | > 50 | > 50 | > 50 | > 50 | O=C(Nc1ccc(Cl)cc1Cl)N1CCOCC1 |
| 3.1 (≈ 10.9 µM) | 37.1 (≈ 130 µM) | > 50 | > 50 | > 50 | > 50 | O=C(Nc1ccc(Br)cc1)N1CCOCC1 |
| > 50 | 31.5 (≈ 107 µM) | 40.2 (≈ 137 µM) | > 50 | > 50 | 31.2 (≈ 106 µM) | O=C(Nc1ccc2c(c1)Cc1ccccc1-2)N1CCOCC1 |
| 6.2 (≈ 30.1 µM) | 22 (≈ 107 µM) | > 50 | > 50 | > 50 | > 50 | O=C(Nc1ccccc1)N1CCOCC1 |
| 7.2 (≈ 32.7 µM) | > 50 | > 50 | > 50 | > 50 | 38.4 (≈ 174 µM) | Cc1ccc(NC(=O)N2CCOCC2)cc1 |
| 3.1 (≈ 12.9 µM) | > 50 | 3.1 (≈ 12.9 µM) | > 50 | > 50 | > 50 | O=C(Nc1ccccc1Cl)N1CCOCC1 |
| 7.5 (≈ 31.7 µM) | 12.5 (≈ 52.9 µM) | > 50 | > 50 | > 50 | 12.5 (≈ 52.9 µM) | COc1ccc(NC(=O)N2CCOCC2)cc1 |
| 12.5 (≈ 45.4 µM) | 8.8 (≈ 32 µM) | 6.2 (≈ 22.5 µM) | > 50 | > 50 | 12.5 (≈ 45.4 µM) | O=C(Nc1cc(Cl)cc(Cl)c1)N1CCOCC1 |
| > 50 | 8.2 (≈ 33.3 µM) | > 50 | > 50 | 12.5 (≈ 50.7 µM) | 12.5 (≈ 50.7 µM) | O=C(N1CCOCC1)N1CCCc2ccccc21 |
| > 50 | 25.3 (≈ 98.3 µM) | 38.7 (≈ 150 µM) | > 50 | > 50 | 40.8 (≈ 159 µM) | O=C(Nc1cccc2cccnc12)N1CCOCC1 |
| 25 (≈ 119 µM) | 12.5 (≈ 59.5 µM) | 6.2 (≈ 29.5 µM) | > 50 | > 50 | 32.6 (≈ 155 µM) | CCN(CC)C(=O)Nc1ccc(F)cc1 |
| 25 (≈ 119 µM) | > 50 | 12.5 (≈ 59.5 µM) | > 50 | > 50 | > 50 | CCN(CC)C(=O)Nc1ccccc1F |
| 25 (≈ 110 µM) | > 50 | 12.5 (≈ 54.8 µM) | > 50 | > 50 | > 50 | CCN(CC)C(=O)Nc1ccc(F)cc1F |
| > 50 | 12.5 (≈ 53.3 µM) | > 50 | > 50 | > 50 | > 50 | CCN(CC)C(=O)Nc1ccc(C(C)C)cc1 |
| 25 (≈ 92.2 µM) | > 50 | > 50 | > 50 | 23 (≈ 84.8 µM) | > 50 | CCN(CC)C(=O)Nc1ccc(Br)cc1 |

| Compound | MIC (Escherichia coli) [µg/mL] | MIC (Pseudomonas aeruginosa) [µg/mL] | MIC (Bacillus subtilis) [µg/mL] | MIC (Staphylococcus aureus) [µg/mL] | MIC (Aspergillus niger) [µg/mL] | MIC (Trichophyton rubrum) [µg/mL] |
| --- | --- | --- | --- | --- | --- | --- |
| NC[C@H]1O[C@H](O[C@H]2[C@H](O)[C@@H](O[C@H]3O[C@H](CO)[C@@H](O)[C@H](N)[C@H]3O)[C@H](N)C[C@@H]2N)[C@H](O)[C@@H](O)[C@@H]1O [KANAMYCIN] | 3.1 (≈ 6.4 µM) | 3.1 (≈ 6.4 µM) | 0.4 (≈ 0.826 µM) | 1 (≈ 2.06 µM) | – | – |
| CC(=O)N1CCN(c2ccc(OCC3COC(Cn4ccnc4)(c4ccc(Cl)cc4Cl)O3)cc2)CC1 (stereo not given) [KETOCONAZOLE] | – | – | – | – | 7.8 (≈ 14.7 µM) | 3.9 (≈ 7.34 µM) |
| CC1(C)S[C@@H]2[C@H](NC(=O)Cc3ccccc3)C(=O)N2[C@H]1C(=O)O [PENICILLIN G] | > 50 | 6.2 (≈ 18.5 µM) | 1.6 (≈ 4.78 µM) | 2 (≈ 5.98 µM) | – | – |
